Measured values reported in patent US11845730B2, “1,3-substituted cyclobutyl derivatives and uses thereof” (Novartis AG, priority 2021, dated 2023).
Structures can show the parent of a compound that is named as a salt.

Target: human TRPV1 (Homo sapiens (Human), UniProt Q8NER1)
Details: read-out: IC50 (μM), antagonist effect against human TRPV1; CHO cells expressing human TrpV1; stimulated with 2.5 μM NADA (EC80); mean of at least three independent experiments
Method: Chinese Hamster Ovary (CHO) cells transfected to express human TrpV1 receptor (which are herein referred to as CHO-huTrpV1 cells), were grown in F-12 Ham's Nutrient Mixture media (HyClone SH30026.01) supplemented with 10% Fetal Bovine Serum (Invitrogen #26140-079), 1% Antibiotic/antimycotic (Invitrogen #15240-062) and 500 ug/mL geneticin (ThermoFisher scientific #1031035). Cells were grown in T-75 flasks at 37° C. incubator with 5% CO2. The cells were passaged twice a week at a ratio of 1:10 to 1:20 to maintain steady growth. For experimentation, cells were harvested at approximately 80% confluency and plated onto 384 well black cell culture plates (cat #781091, Greinier Bio-One Inc.) at 15,000 cells per well in 20 μl media and grown overnight.
The loading dye was prepared following instruction of Calcium 6 assay kit (Molecular Probes, #R8190): 10 ml buffer from bottle B was added to 1 vial of bottle A (adapted to room temperature from −20° C.) and mixed well, then 2.5 mM of fresh prepared probenecid, was added and mixed well. 20 μl/well of loading dye was added on top of the cells, and incubated at 37° C. for 1 hour 30 min.
Assay buffer preparation: 1×HBSS, 2 mM HEPES, 0.1% BSA plus 2.5 mM freshly prepared probenecid (Invitrogen, #P36400). 25 μl/well assay buffer in 384 well clear plate (cat #782281, Greiner Bio-one) was dispensed with buffer distributor (Multidrop ComB1 from Thermo Scientific). The compounds were in 384 Echo plate (cat #LPL0200, Labcyte) and the starting concentration of compound was 10 mM, then 1 to 3 serial dilution in 100% DMSO, 8 ul/well). 125 nl compounds was transferred to the 384 well plate containing 25 μl/well buffer with Echo® 555 Liquid Handler (Labcyte), such that the compound concentration was 5 fold of final concentration. The plate was shook slowly at 40 rpm/min for 10 min to mix. 10 μl of 5 fold compound in the buffer was transferred to the cell plate (containing 20 μl cells and 20 μl dye) using Vertical Pipetting Station 384ST (Agilent Technologies). Six fold of final concentration of NADA (N-arachidonyl dopamine, cat #A8848, Sigma) in the assay buffer was prepared and 30 μl/well was distributed in 384 well clear plate.
After compounds were added to the cell plate with loading dye, within 10-15 minutes, cell plate and plate containing NADA was placed into the FLIPR (Fluorescent Imaging Plate Reader) instrument (Tetra System, Molecular device). The TRPV1 receptor was stimulated by application of 10 μl per well of NADA. For testing the effect of compounds for possible antagonism, 2.5 μM NADA was used at the EC80 concentration.
For determination of antagonist IC50 values (concentration of antagonist that inhibits response to NADA by 50%), at least 10 antagonist concentration were measured in triplicate. The response in the presence of the antagonist was calculated as a percentage of the control response to NADA and was plotted against the concentration of the antagonist. The IC50 was estimated by non-linear regression analysis to sigmoidal-logistic curves by HELIOS (PROD 2) system. These values were averaged (means and standard error of the mean) for at least three independent experiments.

human TRPV1, sequence (Q8NER1 whole entry): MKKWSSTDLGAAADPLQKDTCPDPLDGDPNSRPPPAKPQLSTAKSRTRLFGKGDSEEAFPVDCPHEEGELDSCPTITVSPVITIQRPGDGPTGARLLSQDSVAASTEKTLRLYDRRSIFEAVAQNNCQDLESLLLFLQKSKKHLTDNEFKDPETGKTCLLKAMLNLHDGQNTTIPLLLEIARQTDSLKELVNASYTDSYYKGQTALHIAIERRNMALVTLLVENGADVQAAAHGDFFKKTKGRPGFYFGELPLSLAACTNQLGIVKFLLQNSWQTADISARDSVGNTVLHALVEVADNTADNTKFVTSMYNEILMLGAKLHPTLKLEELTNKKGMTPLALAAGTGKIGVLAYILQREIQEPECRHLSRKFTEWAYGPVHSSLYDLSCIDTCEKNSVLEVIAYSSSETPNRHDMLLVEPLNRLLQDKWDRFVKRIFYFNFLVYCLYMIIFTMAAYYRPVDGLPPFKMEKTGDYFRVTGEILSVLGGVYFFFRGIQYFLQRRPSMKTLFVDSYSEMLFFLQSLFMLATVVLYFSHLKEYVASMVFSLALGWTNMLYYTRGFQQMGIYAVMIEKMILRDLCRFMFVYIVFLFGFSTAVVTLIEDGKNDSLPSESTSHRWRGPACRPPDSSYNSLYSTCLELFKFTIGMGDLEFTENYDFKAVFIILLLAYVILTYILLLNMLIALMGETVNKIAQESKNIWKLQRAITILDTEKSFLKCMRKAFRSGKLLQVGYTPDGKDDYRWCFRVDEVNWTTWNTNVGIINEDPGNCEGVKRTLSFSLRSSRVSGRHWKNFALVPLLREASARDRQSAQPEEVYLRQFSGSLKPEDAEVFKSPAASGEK

Row | Compound | IC50 [nM]
1 | OCC(O)c1cc(F)c(CN[C@H]2C[C@H](Oc3ccc(F)c(C(F)(F)F)c3)C2)c2ccncc12 (mixture of isomers) [Example 7 racemic, 1-(6-fluoro-5-((((1r,3r)-3-(4-fluoro-3-(trifluoromethyl)phenoxy)cyclobutyl)amino)methyl)isoquinolin-8-yl)ethane-1,2-diol] | 10.4
2 | OCCC(O)c1cc(F)c(CNC2CC(Oc3ccc(F)c(C(F)(F)F)c3)C2)c2ccncc12 (racemic) [Example 9 racemic, 1-(6-fluoro-5-((((1r,3r)-3-(4-fluoro-3-(trifluoromethyl)phenoxy)cyclobutyl)amino)methyl)isoquinolin-8-yl)propane-1,3-diol] | 0.58
3 | OC[C@@H](O)c1cc(F)c(CN[C@H]2C[C@H](Oc3ccc(F)c(C(F)(F)F)c3)C2)c2ccncc12 (single isomer, unassigned; peak 1) [Example 7 peak 1] | 0.62
4 | OCC[C@H](O)c1cc(F)c(CN[C@H]2C[C@H](Oc3ccc(F)c(C(F)(F)F)c3)C2)c2ccncc12 (single isomer, unassigned; peak 1) [Example 9 peak 1] | 0.09
5 | Nc1cc2c(CN[C@H]3C[C@H](Oc4ccc(F)c(C(F)(F)F)c4)C3)c(F)cc([C@@H](O)CO)c2cn1 (single isomer, unassigned; peak 1) [Example 21 peak 1] | 4.42
6 | OC[C@H](O)c1cc(F)c(CN[C@H]2C[C@H](Oc3ccc(F)c(C(F)(F)F)c3)C2)c2ccncc12 (single isomer, unassigned; peak 2) [Example 7 peak 2] | 6.3
7 | OCC[C@@H](O)c1cc(F)c(CN[C@H]2C[C@H](Oc3ccc(F)c(C(F)(F)F)c3)C2)c2ccncc12 (single isomer, unassigned; peak 2) [Example 9 peak 2] | 13.7
8 | Nc1cc2c(CN[C@H]3C[C@H](Oc4ccc(F)c(C(F)(F)F)c4)C3)c(F)cc([C@H](O)CO)c2cn1 (single isomer, unassigned; peak 2) [Example 21 peak 2] | 11.3
9 | Cc1ccc2cnccc2c1CN[C@H]1C[C@H](Oc2ccc(F)c(C(F)(F)F)c2)C1 [Example 1, (1r,3r)-3-(4-fluoro-3-(trifluoromethyl)phenoxy)-N-((6-methylisoquinolin-5-yl)methyl)cyclobutan-1-amine, HCl] | 20.8
10 | Cc1ccc2cnccc2c1CN[C@H]1C[C@H](Oc2ccc(C(F)(F)F)nc2)C1 [Example 2, (1r,3r)-N-((6-methylisoquinolin-5-yl)methyl)-3-((6-(trifluoromethyl)pyridin-3-yl)oxy)cyclobutan-1-amine, HCl] | 711
11 | Fc1ccc(O[C@H]2C[C@H](NCc3c(F)ccc4cnccc34)C2)cc1C(F)(F)F [Example 3, (1r,3r)-3-(4-fluoro-3-(trifluoromethyl)phenoxy)-N-((6-fluoroisoquinolin-5-yl)methyl)cyclobutan-1-amine, HCl] | 3.44
12 | Nc1ccc(CN[C@H]2C[C@H](Oc3ccc(F)c(C(F)(F)F)c3)C2)c2ccncc12 [Example 5, 5-((((1r,3r)-3-(4-fluoro-3-(trifluoromethyl)phenoxy)cyclobutyl)amino)methyl)isoquinolin-8-amine, HCl] | 259
13 | OCc1cc(F)c(CN[C@H]2C[C@H](Oc3ccc(F)c(C(F)(F)F)c3)C2)c2ccncc12 [Example 6, (6-fluoro-5-((((1r,3r)-3-(4-fluoro-3-(trifluoromethyl)phenoxy)cyclobutyl)amino)methyl)isoquinolin-8-yl)methanol, HCl] | 7.25
14 | CC(O)c1cc(F)c(CN[C@H]2C[C@H](Oc3ccc(F)c(C(F)(F)F)c3)C2)c2ccncc12 (stereo partly drawn) [Example 8, 1-(6-fluoro-5-((((1r,3r)-3-(4-fluoro-3-(trifluoromethyl)phenoxy)cyclobutyl)amino)methyl)isoquinolin-8-yl)ethan-1-ol, HCl] | 165
15 | OCCc1cc(F)c(CN[C@H]2C[C@H](Oc3ccc(F)c(C(F)(F)F)c3)C2)c2ccncc12 [Example 10, 2-(6-fluoro-5-((((1r,3r)-3-(4-fluoro-3-(trifluoromethyl)phenoxy)cyclobutyl)amino)methyl)isoquinolin-8-yl)ethan-1-ol, HCl] | 166
16 | OC(CC(F)(F)F)c1cc(F)c(CN[C@H]2C[C@H](Oc3ccc(F)c(C(F)(F)F)c3)C2)c2ccncc12 (stereo partly drawn) [Example 11, 3,3,3-trifluoro-1-(6-fluoro-5-((((1r,3r)-3-(4-fluoro-3-(trifluoromethyl)phenoxy)cyclobutyl)amino)methyl)isoquinolin-8-yl)propan-1-ol] | 395
17 | Nc1cc(F)c(CN[C@H]2C[C@H](Oc3ccc(F)c(C(F)(F)F)c3)C2)c2ccncc12 [Example 12, 6-fluoro-5-((((1r,3r)-3-(4-fluoro-3-(trifluoromethyl)phenoxy)cyclobutyl)amino)methyl)isoquinolin-8-amine] | 57.8
18 | Nc1cc2c(CN[C@H]3C[C@H](Oc4ccc(F)c(C(F)(F)F)c4)C3)cccc2cn1 [Example 13, 5-((((1r,3r)-3-(4-fluoro-3-(trifluoromethyl)phenoxy)cyclobutyl)amino)methyl)isoquinolin-3-amine] | 63.7

Row | Compound | IC50 [nM]
19 | Nc1cc2c(CN[C@H]3C[C@H](Oc4ccc(F)c(C(F)(F)F)c4)C3)c(F)ccc2cn1 [Example 14, 6-fluoro-5-((((1r,3r)-3-(4-fluoro-3-(trifluoromethyl)phenoxy)cyclobutyl)amino)methyl)isoquinolin-3-amine, HCl] | 4.04
20 | Nc1cc2c(CN[C@H]3C[C@H](Oc4ccc(F)cc4F)C3)c(F)ccc2cn1 [Example 15, 5-((((1r,3r)-3-(2,4-difluorophenoxy)cyclobutyl)amino)methyl)-6-fluoroisoquinolin-3-amine, HCl] | 51
21 | Nc1cc2c(CN[C@H]3C[C@H](Oc4ccnc(C(F)(F)F)c4)C3)c(F)ccc2cn1 [Example 16, 6-fluoro-5-((((1r,3r)-3-((2-(trifluoromethyl)pyridin-4-yl)oxy)cyclobutyl)amino)methyl)isoquinolin-3-amine, HCl] | 31
22 | Nc1cc2c(CN[C@H]3C[C@H](Oc4ccc(C(F)(F)F)nc4)C3)c(F)ccc2cn1 [Example 17, 6-fluoro-5-((((1r,3r)-3-((6-(trifluoromethyl)pyridin-3-yl)oxy)cyclobutyl)amino)methyl)isoquinolin-3-amine, HCl] | 130
23 | Nc1cc2c(CN[C@H]3C[C@H](Oc4ccc(F)c(C(F)(F)F)c4)C3)c(F)cc(CO)c2cn1 [Example 18, (3-amino-6-fluoro-5-((((1r,3r)-3-(4-fluoro-3-(trifluoromethyl)phenoxy)cyclobutyl)amino)methyl)isoquinolin-8-yl)methanol, HCl] | 1.63
24 | Nc1cc2c(CN[C@H]3C[C@H](Oc4ccc(F)cc4F)C3)c(F)cc(CO)c2cn1 [Example 19, (3-amino-5-((((1r,3r)-3-(2,4-difluorophenoxy)cyclobutyl)amino)methyl)-6-fluoroisoquinolin-8-yl)methanol, HCl] | 16.2
25 | Nc1cc2c(CN[C@H]3C[C@H](Oc4ccnc(C(F)(F)F)c4)C3)c(F)cc(CO)c2cn1 [Example 20, (3-amino-6-fluoro-5-((((1r,3r)-3-((2-(trifluoromethyl)pyridin-4-yl)oxy)cyclobutyl)amino)methyl)isoquinolin-8-yl)methanol, HCl] | 87.2
26 | Fc1ccc(O[C@H]2C[C@H](NCc3cccc4cnccc34)C2)cc1C(F)(F)F [Example 22, (1r,3r)-3-(4-fluoro-3-(trifluoromethyl)phenoxy)-N-(isoquinolin-5-ylmethyl)cyclobutan-1-amine, HCl] | 436
27 | Oc1ccc(CN[C@H]2C[C@H](Oc3ccc(F)c(C(F)(F)F)c3)C2)c2ccncc12 [Example 23, 5-((((1r,3r)-3-(4-fluoro-3-(trifluoromethyl)phenoxy)cyclobutyl)amino)methyl)isoquinolin-8-ol, HCl] | 232
28 | Cc1ccc(CN[C@H]2C[C@H](Oc3ccc(F)c(C(F)(F)F)c3)C2)c2ccncc12 [Example 24, (1r,3r)-3-(4-fluoro-3-(trifluoromethyl)phenoxy)-N-((8-methylisoquinolin-5-yl)methyl)cyclobutan-1-amine, HCl] | 906
29 | OCc1ccc(CN[C@H]2C[C@H](Oc3ccc(F)c(C(F)(F)F)c3)C2)c2ccncc12 [Example 25, (5-((((1r,3r)-3-(4-fluoro-3-(trifluoromethyl)phenoxy)cyclobutyl)amino)methyl)isoquinolin-8-yl)methanol, HCl] | 100
30 | Fc1ccc(O[C@H]2C[C@H](NCc3c(F)ccc4cnccc34)C2)c(F)c1 [Example 26, (1r,3r)-3-(2,4-difluorophenoxy)-N-((6-fluoroisoquinolin-5-yl)methyl)cyclobutan-1-amine] | 108
31 | Fc1ccc(O[C@H]2C[C@H](NCc3c(F)ccc4cnccc34)C2)cc1F [Example 27, (1r,3r)-3-(3,4-difluorophenoxy)-N-((6-fluoroisoquinolin-5-yl)methyl)cyclobutan-1-amine, HCl] | 23
32 | Fc1ccc(O[C@H]2C[C@H](NCc3cccc4cnccc34)C2)cc1Cl [Example 28, (1r,3r)-3-(3-chloro-4-fluorophenoxy)-N-(isoquinolin-5-ylmethyl)cyclobutan-1-amine, HCl] | 280
33 | Fc1ccc2cnccc2c1CN[C@H]1C[C@H](Oc2cccc(OC(F)F)c2)C1 [Example 29, (1r,3r)-3-(3-(difluoromethoxy)phenoxy)-N-((6-fluoroisoquinolin-5-yl)methyl)cyclobutan-1-amine, HCl] | 62.3
34 | Fc1ccc2cnccc2c1CN[C@H]1C[C@H](Oc2ccc(OC(F)F)cc2)C1 [Example 30, (1r,3r)-3-(4-(difluoromethoxy)phenoxy)-N-((6-fluoroisoquinolin-5-yl)methyl)cyclobutan-1-amine, HCl] | 186
35 | Fc1ccc2cnccc2c1CN[C@H]1C[C@H](Oc2ccc3ccccc3c2)C1 [Example 31, (1r,3r)-N-((6-fluoroisoquinolin-5-yl)methyl)-3-(naphthalen-2-yloxy)cyclobutan-1-amine, HCl] | 264
36 | Fc1ccc2ccc(O[C@H]3C[C@H](NCc4c(F)ccc5cnccc45)C3)cc2c1 [Example 32, (1r,3r)-N-((6-fluoroisoquinolin-5-yl)methyl)-3-((7-fluoronaphthalen-2-yl)oxy)cyclobutan-1-amine, HCl] | 102
